In ChEMBL document CHEMBL1128936, “Protein-ligand interactions. 6 nicotinic acetylcholine receptor agonist activity of isoquinoline alkaloids” (Bioorg Med Chem Lett, 1996):
Values joined by “and” are separate entries in the source; they are usually repeats but may differ in a detail not shown here. Equal entries are not always repeated.

Experiments:
[1] = biological target: T1, Acetylcholine receptor subunit delta (Torpedo californica) (UniProt P02718); assay: Compound was tested for its binding affinity against nicotinic acetylcholine receptor by fluorimetry assay; conditions: torpedo fuscomaculata
T1 sequence (whole entry): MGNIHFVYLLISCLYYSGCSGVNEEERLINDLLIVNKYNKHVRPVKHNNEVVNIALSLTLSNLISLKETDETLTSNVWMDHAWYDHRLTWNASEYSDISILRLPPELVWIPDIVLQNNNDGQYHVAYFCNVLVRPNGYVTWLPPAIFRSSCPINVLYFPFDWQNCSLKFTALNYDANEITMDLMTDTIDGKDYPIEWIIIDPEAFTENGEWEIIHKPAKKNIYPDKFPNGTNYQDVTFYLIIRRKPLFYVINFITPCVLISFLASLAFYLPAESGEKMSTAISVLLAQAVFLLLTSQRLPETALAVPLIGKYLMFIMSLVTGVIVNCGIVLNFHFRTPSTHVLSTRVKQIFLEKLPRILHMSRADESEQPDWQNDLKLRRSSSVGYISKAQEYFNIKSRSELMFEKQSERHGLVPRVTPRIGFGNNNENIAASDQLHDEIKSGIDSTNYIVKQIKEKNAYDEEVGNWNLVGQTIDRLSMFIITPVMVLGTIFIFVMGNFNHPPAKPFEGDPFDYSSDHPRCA

[2] = biological target: T1, Acetylcholine receptor subunit delta (Torpedo californica); assay: Compound was tested for its binding affinity against nicotinic acetylcholine receptor by spectrometry assay; conditions: torpedo fuscomaculata

CC(=O)OCC[N+](C)(C)C
Kd1 [1]: 0.12 µM | Kd2 [1]: 2.3 µM | Kd1 [2]: 0.18 µM | Kd2 [2]: 3 µM

c1ccc2cnccc2c1
Bmax [1]: 0.31 µM | Kd1 [1]: 3.1 µM | Kd2 [1]: 49 µM | Bmax [2]: 1.86 µM | Kd1 [2]: 3.3 µM | Kd2 [2]: 51.6 µM

COc1cc2c3cc1Oc1cc(ccc1O)C[C@@H]1c4c(cc(OC)c(O)c4Oc4ccc(cc4)C[C@@H]3N(C)CC2)CC[N+]1(C)C
Kd1 [1]: 0.05 µM | Kd2 [1]: 11.4 µM | Kd1 [2]: 0.03 µM | Kd2 [2]: 8 µM

COc1ccc(Cc2nccc3cc(OC)c(OC)cc23)cc1OC
Bmax [1]: 0.27 µM | Kd1 [1]: 1.7 µM | Bmax [2]: 2.07 µM | Kd1 [2]: 2.4 µM | Kd2 [2]: 31 µM and 29 µM

COc1ccc2cc3[n+](cc2c1OC)CCc1cc2c(cc1-3)OCO2
Bmax [1]: 0.31 µM | Kd1 [1]: 0.77 µM | Bmax [2]: 2.14 µM | Kd1 [2]: 0.84 µM | Kd2 [2]: 27 µM and 34 µM
